According to paper PMC6021502, “Cannabigerol Action at Cannabinoid CB1 and CB2 Receptors and at CB1–CB2 Heteroreceptor Complexes” (Frontiers in Pharmacology, 2018):

What was measured:
human CB1 receptor = molecular target: T1, human CB1 receptor (Homo sapiens, UniProt P21554); experiment: biochemical; type: binding; details: radioligand 0.3 nM [3H]-CP-55940, CHO membranes
T1 construct: expressed in transfected cells; membranes

[1] = molecular target: T2, CB2R in a CB1–CB2 receptor heteromer context (Homo sapiens, UniProt P34972); experiment: Homogeneous HTRF competition binding in living HEK-293T cells expressing SNAP-CB2R and CB1R; details: 20 nM fluorescent ligand, read-out: Ki, HTRF competition of fluorophore-conjugated CM-157 in the presence of CB1R
T2 construct: host or cells: HEK-293T, transient co-transfection (PEI)

[2] = tested on: T3, CB1R and CB2R (CB1–CB2 heteroreceptor complexes); experiment: cAMP determination in HEK-293T cells co-expressing both receptors; type: cell-based, human
T3 construct: expressed in transfected cells; host or cells: HEK-293T, transient co-transfection (PEI)
Procedure: (§1) HEK-293T cells were grown in DMEM medium (Gibco, Paisley, Scotland, United Kingdom) supplemented with 2 mM L-glutamine, 100 U/mL penicillin/streptomycin, MEM Non-Essential Amino Acids Solution (1/100) and 5% (v/v) heat inactivated Foetal Bovine Serum (FBS) (Invitrogen, Paisley, Scotland, United Kingdom). […] Cells were transiently transfected with the PEI (Polyethylenimine, Sigma, St. Louis, MO, United States) method as previously described ([Medrano et al., 2017]; [Navarro et al., 2018b]) and used for functional assays 48 h later (unless otherwise stated).
Signaling experiments have been performed as previously described ([Navarro et al., 2010], [2016], [2018b]; [Hinz et al., 2018]). Two hours before initiating the experiment, HEK-293T cell-culture medium was replaced by serum-starved DMEM medium. Then, cells were detached, resuspended in growing medium containing 50 μM zardaverine and placed in 384-well microplates (2,500 cells/well). Cells were pretreated (15 min) with CBG -or vehicle- and stimulated with agonists (15 min) before adding 0.5 μM forskolin or vehicle. Readings were performed after 15 min incubation at 25°C. […] Fluorescence at 665 nm was analyzed in a PHERAstar Flagship microplate reader equipped with an HTRF optical module (BMG Lab Technologies, Offenburg, Germany).

CB1R [3] = tested on: T4, CB1R; experiment: ERK1/2 phosphorylation in HEK-293T cells; type: cell-based, human
T4 construct: expressed in transfected cells; host or cells: HEK-293T, transient transfection (PEI)
Procedure: as §1
(§2) To determine ERK1/2 phosphorylation, 50,000 HEK-293T cells/well were plated in transparent Deltalab 96-well microplates and kept at the incubator for 24 h. 2 to 4 h before the experiment, the medium was substituted by serum-starved DMEM medium. Then, cells were pre-treated at 25°C for 10 min with vehicle or CBG in serum-starved DMEM medium and stimulated for an additional 7 min with the specific agonists. Cells were then washed twice with cold PBS before addition of lysis buffer (20 min treatment). 10 μL of each supernatant were placed in white ProxiPlate 384-well microplates and ERK 1/2 phosphorylation was determined using AlphaScreen®SureFire® kit (Perkin Elmer) following the instructions of the supplier and using an EnSpire® Multimode Plate Reader (PerkinElmer, Waltham, MA, United States).

CB2R [4] = tested on: T5, CB2R; experiment: ERK1/2 phosphorylation in HEK-293T cells; type: cell-based, human
T5 construct: expressed in transfected cells; host or cells: HEK-293T, transient transfection (PEI)
Procedure: as §1, §2

[5] = tested on: T3, CB1R and CB2R (CB1–CB2 heteroreceptor complexes); experiment: Label-free dynamic mass redistribution (DMR) in HEK-293T cells co-expressing both receptors; type: cell-based, human
Procedure: as §1
Cell mass redistribution induced upon receptor activation was detected by illuminating the underside of a biosensor with polychromatic light and measuring the changes in the wavelength of the reflected monochromatic light. The magnitude of this wavelength shift (in picometers) is directly proportional to the amount of DMR. […] Hereafter, the sensor plate was scanned and a baseline optical signature was recorded for 10 min before adding 10 μL of CBG for 30 min followed by the addition of 10 μL of specific agonists; all test compounds were dissolved in assay buffer. The cell signaling signature was determined using an EnSpire® Multimode Plate Reader (PerkinElmer, Waltham, MA, United States) by a label-free technology. Then, DMR responses were monitored for at least 5,000 s. Results were analyzed using EnSpire Workstation Software v 4.10.

CB1R [6] = tested on: T4, CB1R; experiment: Overall signalling profile (cAMP, MAPK, β-arrestin, DMR) in HEK-293T cells; type: cell-based, human; details: HEK-293T cells expressing CB1R
Procedure: as §1
(§3) Signaling experiments have been performed as previously described ([Navarro et al., 2010], [2016], [2018b]; [Hinz et al., 2018]). […] Readings were performed after 15 min incubation at 25°C. […] Fluorescence at 665 nm was analyzed in a PHERAstar Flagship microplate reader equipped with an HTRF optical module (BMG Lab Technologies, Offenburg, Germany).
(§4) To determine ERK1/2 phosphorylation, 50,000 HEK-293T cells/well were plated in transparent Deltalab 96-well microplates and kept at the incubator for 24 h. […] 10 μL of each supernatant were placed in white ProxiPlate 384-well microplates and ERK 1/2 phosphorylation was determined using AlphaScreen®SureFire® kit (Perkin Elmer) following the instructions of the supplier and using an EnSpire® Multimode Plate Reader (PerkinElmer, Waltham, MA, United States). […]

CB2R [7] = tested on: T5, CB2R; experiment: as above; type: cell-based, human; details: HEK-293T cells expressing CB2R
Procedure: as §1, §3, §4

mouse brain membranes = tested on: mouse brain membranes; parameters: method as in Cascio et al., 2010; details: 10 μM CBG, mouse brain membranes treated with AEA or CP-55940; ref Cascio et al., 2010; cited from earlier work
α2-adrenoceptor = tested on: α2-adrenoceptor; parameters: method as in Cascio et al., 2010; details: ref Cascio et al., 2010; read-out: EC50 as α2-adrenoceptor agonist; cited from earlier work
5HT1A receptor = tested on: 5HT1A receptor; parameters: method as in Cascio et al., 2010; details: stimulation by 1 μM 8-OH-DPAT; ref Cascio et al., 2010; cited from earlier work
TRPA1 = details: ref De Petrocellis et al., cited from earlier work
AEA cell uptake = tested on: AEA cell uptake; parameters: method as in De Petrocellis et al., 2011; details: ref De Petrocellis et al., 2011; read-out: Ki, inhibitor of AEA cell uptake; cited from earlier work
experimental colitis = tested on: experimental colitis; parameters: method as in Borrelli et al., 2013; details: model of inflammatory bowel disease; ref Borrelli et al., 2013; cited from earlier work
[8] = 100 nM CBG pretreatment, cells co-expressing CB1R and CB2R
[9] = CBG alone, dose-effect, cells expressing CB1R and CB2R

T2 sequence (P34972 whole entry): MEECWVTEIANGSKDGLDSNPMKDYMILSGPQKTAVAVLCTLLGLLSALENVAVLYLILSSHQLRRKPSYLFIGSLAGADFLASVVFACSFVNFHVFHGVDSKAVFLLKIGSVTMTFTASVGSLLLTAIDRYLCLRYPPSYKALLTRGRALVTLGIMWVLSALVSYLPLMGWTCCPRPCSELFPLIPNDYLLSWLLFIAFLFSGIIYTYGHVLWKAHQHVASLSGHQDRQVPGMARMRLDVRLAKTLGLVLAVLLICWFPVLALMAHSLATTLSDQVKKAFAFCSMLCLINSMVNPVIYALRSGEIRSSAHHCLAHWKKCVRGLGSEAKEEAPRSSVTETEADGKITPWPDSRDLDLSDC
T2 sequence (P21554 whole entry partner): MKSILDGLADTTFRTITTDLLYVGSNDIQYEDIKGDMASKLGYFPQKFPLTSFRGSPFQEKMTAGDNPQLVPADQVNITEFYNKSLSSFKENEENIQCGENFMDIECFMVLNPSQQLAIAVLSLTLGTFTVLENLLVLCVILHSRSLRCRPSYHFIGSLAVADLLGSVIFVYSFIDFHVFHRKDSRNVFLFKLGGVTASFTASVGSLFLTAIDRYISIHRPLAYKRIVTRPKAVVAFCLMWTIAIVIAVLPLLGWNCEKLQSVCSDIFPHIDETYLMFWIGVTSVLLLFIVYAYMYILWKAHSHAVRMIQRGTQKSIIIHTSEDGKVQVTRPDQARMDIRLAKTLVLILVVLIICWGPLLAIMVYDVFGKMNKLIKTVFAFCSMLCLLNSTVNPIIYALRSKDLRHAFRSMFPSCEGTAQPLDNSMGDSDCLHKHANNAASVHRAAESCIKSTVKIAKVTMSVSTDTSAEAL
T1 sequence (P21554 whole entry): as the sequence (P21554 whole entry partner) above

For `CCCCCc1cc(O)c(C/C=C(\C)CCC=C(C)C)c(O)c1` [CBG, cannabigerol], the Ki (human CB1 receptor) was 1050 nM, the Ki [1] was 56 nM and the “Effect on AEA, ACEA and/or JWH133 actions in cAMP-related assays” value [2, 8] was “significant effects, always reducing the effect of the agonists”. The “Effect on cAMP level” value [2, 9] was “additive”, the “Effect on agonist-induced MAPK phosphorylation” value (CB1R [3]; 100 nM or 1 μM CBG, 100 nM AEA or ACEA, CB1R) was “unable to modify” and the “Effect on MAPK phosphorylation” value (CB1R [3]; CBG alone, 1 nM to 10 μM, CB1R-expressing cells) was “no significant action”. The “Effect on AEA and JWH133 effects on ERK1/2 phosphorylation” value (CB2R [4]; 100 nM or 1 μM CBG pretreatment, 100 nM AEA or JWH133, CB2R) was “reduced the effects of AEA and JWH133”, the “Activation of the MAP kinase pathway” value (CB2R [4]; CBG alone, 1 nM to 10 μM, CB2R-expressing cells) was “notable” and the “Effect on agonist actions on DMR read-outs” value [5, 8] was “negative modulation of the ACEA effect on ERK1/2 phosphorylation and DMR, and of the AEA effect on DMR read-outs”. For the same molecule, the DMR signal [5, 9] was “additive”, the “Pharmacological profile at CB1R” value (CB1R [6]) was “poor agonist of CB1R” and the “Pharmacological profile at CB2R” value (CB2R [7]) was “partial agonist of the CB2R”. For the same molecule, the “Effect on [35S]GTPγS binding” value (mouse brain membranes) was “antagonized”, the EC50 (α2-adrenoceptor) was 0.2 nM and the “Effect on [35S]GTPγS binding upon 5HT1A stimulation” value (5HT1A receptor) was “able to antagonize”. For the same molecule, the “EC50 values, transient receptor potential channels of ankyrin type-1” value (TRPA1; 2008) was “micromolar range”, the EC50 (TRPA1; 2011, read-out: EC50, agonist/desensitizer of TRPA1) was 700 nM and the Ki (AEA cell uptake) was 11300 nM. For the same molecule, the “Effect on experimental colitis” value (experimental colitis) was “reduce the histological and molecular changes of experimental colitis”.
